Source: article PMC3664642, “A Peptide against Soluble Guanylyl Cyclase α1: A New Approach to Treating Prostate Cancer” (PLoS ONE, 2013)
Entries after “also recorded” stand apart in the source; their conditions may differ. Where no end group is shown, it is not given here.

What was measured:
Format in all cases: cell-based
sGC = experiment: cGMP levels in LNCaP cells (ELISA); details: 1 nM R1881 absent or present, 20 µM peptide, cGMP EIA kit, Fig. S1B
Method: (A) Whole-cell extracts from LNCaP cells treated with Vehicle, Peptide A-8R, or C-8R were subjected to IP using an anti-sGCα1 or anti-sGCβ1 antibody and then probed by Western blotting for sGCα1 (Upper) or sGCβ1 (Lower). Input represents amount of sGCα1 or sGCβ1 found in extracts. (B) LNCaP cells grown in the absence or presence of 1 nM R1881 were treated with Vehicle, 20 µM Peptide A-8R, 20 µM C-8R, or 8-Br-cGMP and monitored for cGMP levels using the cGMP E1A kit (Enzo Life Sciences). (C) LNCaP cells grown in the absence or presence of 8-Br-cGMP were treated with Vehicle, Peptide A-8R, or ODQ and monitored for cell density using the MTT assay. (D) LNCaP cells were treated with Vehicle or different concentrations of Peptide A-8R and C-PTIO and monitored for cell density. Bar graphs represent averages of three independent experiments plus standard deviations. Asterisks indicate statistical significance (P<0.04). (TIF) Click here for additional data file.

C81 cells = experiment: NAC rescue of proliferation of Peptide A-8R-treated cells (MTT); details: 50 µM vs 10 and 25 µM
Method: (§1) For proliferation, cells were grown in medium containing 2% FBS extracted with dextran-coated charcoal (DCC). 48 hours later, ethanol or 1 nM R1881 was added to the cells followed by peptide treatment. The MTT assay (Sigma) was used as before to determine cell number. For apoptosis, 5000 cells were seeded in 96-well plates and treated with Vehicle (DMSO), Peptide A-8R (25 µM), Etoposide (50 µM) (Sigma) at different time points. The Caspase (3/7) activity was measured using Apo-ONE Homogeneous Caspase-3/7 assay kit (Promega). PARP cleavage was also used to measure apoptosis, and is described below.
Intracellular ROS levels were evaluated using the fluorescent probe 5-(and-6)-chloromethyl-2′,7′-dichlorodihydrofluorescein diacetate (CM-H2DCFDA) (Invitrogen). After treatments with Peptide A-8R, C81 cells were loaded with 20 µM CM-H2DCFDA and incubated at 37°C for 30 min in the dark. Cells were then washed with PBS and fluorescence was measured at the excitation and emission wavelengths of 490 and 535 nm, respectively, using a multi-well fluorescence plate reader. For NAC (N-acetyl cysteine) (Sigma) rescue experiment, cells were pretreated with 1 or 5 mM NAC for 2 hours before adding Peptide A-8R.
Figure 4 Peptide A-8R kills prostate cancer cells by mediating ROS generation. (A) C81 cells were treated with Vehicle or different µMolar concentrations of Peptide A-8R and without or with 0–5 mM NAC and monitored for ROS generation after 0–30 min as measured by fluorescence intensity (FI). Bar graphs represent averages of three independent experiments plus standard deviations. Note that asterisks on bar graphs found with NAC are compared to equivalent data without NAC. (B) C81 cells were treated with Vehicle or different concentrations of Peptide A-8R, as shown, and 0–5 mM NAC, as shown, and monitored for cell number after 0–6 days of incubation as measured by MTT assay. Data points represent averages of three independent experiments plus standard deviations. Asterisks indicate statistical significance (P<0.04). (C) C81 cells were treated with Vehicle or different concentrations of Peptide A-8R, as shown, and with or without 5 mM NAC, as shown, and monitored DNA damage after 1 hr incubation as measured by Comet assay.

[1] = system: Caspase 3/7 activity in PC-3 cells; experiment: Caspase 3/7 assay, PC-3 cells; details: 10 µM; 0–24 hrs; Fig. 5B
Method: as §1
Figure 5 Peptide A-8R induces apoptosis of prostate cancer cells. (A) LNCaP, (B) PC-3, or (C) Cos cells were treated with Vehicle, Peptide A-8R (10 µM), or Etoposide (20 µM) for 0–24 hrs and subjected to a Caspase assay to measure apoptosis. Bar graphs represent averages of three independent experiments plus standard deviations. All activities are relative to the first condition, and this activity was set to 1. Asterisks indicate statistical significance (P<0.005). (D) LNCaP cells were treated with Vehicle, Peptide C-8R, Peptide A-8R, or Etoposide (each drug at 50 µM) for 8 hrs and monitored for apoptosis by measuring PARP cleavage using Western blotting. Note that β-actin was used to control for protein loading.

p53 = p53 activity and dependence; details: prostate cancer cells; data not shown

Question: What does the source list for Ac-TFCKAFPFHIIRRRRRRRR [Peptide A-8R]?
Answer: cGMP levels (sGC): unable to significantly repress cGMP levels, in either the absence or presence of androgen; also recorded: does not interfere with sGCα1-sGCβ1 dimerization and androgen-induced cGMP synthesis; cytotoxicity at 50 µM relative to lower concentrations (C81 cells): strongest cytotoxic activity; induction of apoptosis, PC-3 [1]: failed to induce apoptosis; effect on p53 activity and p53 dependence of apoptosis (p53): does not disrupt p53 activity nor depend on endogenous p53 for inducing apoptosis
